Data taken from ChEMBL document CHEMBL1122966, “Compactin (ML-236B) and related compounds as potential cholesterol-lowering agents that inhibit HMG-CoA reductase” (J Med Chem, 1985).

What was measured:
[1] = target: T1, 3-hydroxy-3-methylglutaryl-coenzyme A reductase (Rattus norvegicus, UniProt P51639); test: Binding affinity was determined against purified rat liver HMG-coA reductase enzyme
T1 sequence (P51639 whole entry): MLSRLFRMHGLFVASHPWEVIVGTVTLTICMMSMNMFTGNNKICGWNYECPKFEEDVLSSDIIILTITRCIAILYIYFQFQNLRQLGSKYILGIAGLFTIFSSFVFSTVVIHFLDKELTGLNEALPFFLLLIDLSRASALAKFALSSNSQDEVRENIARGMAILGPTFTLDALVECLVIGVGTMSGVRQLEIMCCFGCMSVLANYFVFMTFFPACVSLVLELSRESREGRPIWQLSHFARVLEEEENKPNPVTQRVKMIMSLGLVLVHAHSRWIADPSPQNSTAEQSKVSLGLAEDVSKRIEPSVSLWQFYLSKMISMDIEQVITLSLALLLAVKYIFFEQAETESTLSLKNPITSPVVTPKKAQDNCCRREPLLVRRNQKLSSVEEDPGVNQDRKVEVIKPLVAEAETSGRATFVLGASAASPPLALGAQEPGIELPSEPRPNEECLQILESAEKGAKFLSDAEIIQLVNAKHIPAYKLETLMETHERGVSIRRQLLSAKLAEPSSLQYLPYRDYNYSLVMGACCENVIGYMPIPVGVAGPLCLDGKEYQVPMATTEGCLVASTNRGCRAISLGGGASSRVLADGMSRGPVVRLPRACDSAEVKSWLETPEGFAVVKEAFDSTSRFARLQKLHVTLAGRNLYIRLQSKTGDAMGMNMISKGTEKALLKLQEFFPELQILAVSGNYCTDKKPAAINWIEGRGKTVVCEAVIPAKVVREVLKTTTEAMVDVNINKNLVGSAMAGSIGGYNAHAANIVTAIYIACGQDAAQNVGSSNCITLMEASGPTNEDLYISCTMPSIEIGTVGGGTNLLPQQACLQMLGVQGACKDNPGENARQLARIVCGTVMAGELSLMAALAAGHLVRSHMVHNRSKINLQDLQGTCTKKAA

[2] = species: Homo sapiens; test: Ability to inhibit cholesterol biosynthesis from [14C]acetate in cultured human skin fibroblasts at the concentration of 1 uM; format: functional
[3] = species: Homo sapiens; test: Ability to inhibit cholesterol biosynthesis from [14C]acetate in cultured human skin fibroblasts at the concentration of 10 uM; format: functional
[4] = species: Homo sapiens; test: Ability to inhibit cholesterol biosynthesis from [14C]acetate in cultured human skin fibroblasts at the concentration of 10 nM; format: functional
[5] = species: Homo sapiens; test: Ability to inhibit cholesterol biosynthesis from [14C]acetate in cultured human skin fibroblasts at the concentration of 100 nM; format: functional
[6] = species: Homo sapiens; test: Ability to inhibit cholesterol biosynthesis from [14C]acetate in cultured human skin fibroblasts at the concentration of 1 nM; format: functional

Ki [1]: ~1 nM
SMILES: CC[C@H](C)C(=O)O[C@H]1CCC=C2C=C[C@H](C)[C@H](CC[C@@H]3C[C@@H](O)CC(=O)O3)[C@H]21 [MEVASTATIN]
inhibition at 1 µM [2]: 95% | inhibition at 10 µM [3]: 100% | inhibition at 0.01 µM [4]: 80% | inhibition at 0.1 µM [5]: 90% | inhibition at 0.001 µM [6]: 50%
